Measurements published in patent publication US11780821B2, “Inhibitors of fibroblast activation protein” (Praxis Biotech LLC, priority 2017, dated 2023).

Experiments:
[1] = system: MC38 mouse colon cancer cell line; assay: Tumor inhibition in vivo (MC38 tumor in C57/BL6 mice); conditions: 50 mg/kg orally twice daily from day 7 to day 22; no statistical significance observed
Description: Female C57/BL6 mice (approximately 8-9 weeks old; 20-21 gr) obtained from the vivarium of Fundación Ciencia & Vida (Santiago, Chile) were maintained in a temperature-controlled room with 12/12 hour light/dark schedule with food and water ad libitum. The mice were acclimated for a minimum period of 4 days upon arrival at the testing facility.
MC38 mouse colon cancer cell line was maintained as monolayer culture in DMEM-F12 (Cat. No.: SH30023.01, Hyclone) supplemented with 10% fetal bovine serum (Cat. No.: 16000, Gibco) and penicillin/streptomycin (Cat. No.: 15140122, Gibco) at 37° C. in an atmosphere with 5% CO2. The cells were routinely subcultured every 3 days to maintain growth at exponential phase. […] Cell pellet was resuspended in approximately 10× volume of cell culture medium and counted. Cell viability was determined to be >95% by trypan blue staining.
At the day of inoculation, female C57/B16 mice (n=15 total) were weighed and identified by marking the tail with numbers using a non-toxic permanent marker. […] Tumors were measured three times per week with digital calipers and tumors volumes, expressed in mm^3, were calculated with the following formula: Tumor volume (mm^3)=(a×b^2)/2 […]
Seven days after inoculation, mean tumor volume was about 100 mm^3. […] Body weight of the mice and tumor volume was recorded two or three times per week for a total of 22 days. […]

[2] = PK study in hamsters (IV and PO); assay type: in vivo; conditions: male, Golden Syrian, plasma, hamster
Description: To assess the effect of FAP inhibition by an exemplary compound over the cleavage of endogenously produced FGF21, in vivo PK/PD studies were conducted in male Golden Syrian hamsters following single intravenous and oral administration of an exemplary compound. Compound 13 (an exemplary compound) was formulated in dimethyl sulfoxide (DMSO)/Solutol® HS 15 (BASF, Germany)/phosphate buffered saline (PBS, Sigma, USA) (5/5/90, v/v/v) at 0.2 mg/mL for IV injection and polyethylene glycol (PEG) 200 (Sigma, USA)/water for injection (WFI; Tai-Yu, Taiwan) (50/50, v/v) at 1 mg/mL for PO administration. The dosing volumes were 5 mL/kg for IV and 10 mL/kg for PO. Hamsters from Group 1 received an intravenous bolus via jugular vein of 1 mg/kg of compound 13 (an exemplary compound). On the other hand, hamsters from Group 2 received an intragastric bolus of 10 mg/kg of compound 13 (an exemplary compound) using feeding needles. Plasma samples were collected at 5, 10, 15, 30, 60, 120, 240, 360, 480 and 1440 minutes post-dose in both IV and PO groups. Hamsters from group 3 were not dosed and were used to collect samples of zero time point and baseline levels of FAP activity and endogenous FGF21. […]

SMILES | tumor volume vs vehicle [1] | AUC(0-t) ([2]; intravenous 1 mg/kg) [ng·h/mL] | AUC(0-t) ([2]; oral 10 mg/kg) [ng·h/mL]
N#C[C@@H]1CC(F)(F)CN1C(=O)CNC(=O)c1ccncc1C1CC1 [Compound 24, (S)—N-(2-(2-cyano-4,4-difluoropyrrolidin-1-yl)-2-oxoethyl)-3-cyclopropylisonicotinamide] | smaller volume of tumor |  | 
N#C[C@@H]1CC(F)(F)CN1C(=O)CNC(=O)c1ccncc1-c1ccccc1 [Compound 13, (S)—N-(2-(2-cyano-4,4-difluoropyrrolidin-1-yl)-2-oxoethyl)-3-phenylisonicotinamide] |  | 255 | 350
